Reference: publication PMC3578829, “A Small Molecule (Pluripotin) as a Tool for Studying Cancer Stem Cell Biology: Proof of Concept” (PLoS ONE, 2013)

Key:
Type in all cases: cell-based
HCT-116 = assay: Cell cycle analysis; settings: harvested day 5
Protocol: Approximately 5×10^6 cells were washed with PBS, resuspended in 5 ml of 4°C 70% ethyl alcohol (ETOH) and then incubated at 4°C for 30 min. The sample was washed again before the addition of 0.5 ml PBS containing 0.2 mg/ml of RNAse A. The sample was then incubated at 37°C for 15 minutes. Next, 0.5 ml propidium iodide (0.05 mg/ml in PBS) was added and incubated at 4°C in the dark for 15 min. The sample was then analyzed on the FACScan (Becton Dickinson, San Jose, CA) flow cytometer. Modfit software evaluated DNA content with an automatic module to determine the fraction of cells in the cell cycle compartments.

COLO 205 = assay: FACS analysis of putative CSC surface markers; settings: five days of SC-1 treatment
Excerpt: A BD FACsAria (BD Biosciences, San Jose, CA) was utilized for FACS analysis according to standard procedures. The instrument was equipped with a 488 nm 100 mW blue laser, a 638 nm 30 mW red laser, and a 405 nm 50 mW violet laser. The software package Diva 5.0 (BD Biosciences) was used for collection and analysis of data. The alignment of the three lasers in the flow cell was verified prior to running tumor cell samples by running Rainbow Beads (Spherotech). The six colors being used in the analysis were then compensated to account for spectral overlap emitted by the fluorochromes within each laser as well as across the lasers using a semi-automated process. […] The data was then run through the Diva software compensation matrices and the amount of “spectral bleed” from other fluorochromes into the fluorochrome of interest’s channel was determined and automatically compensated.
Treated and untreated cells (1×10^6 cells/condition) were harvested with trypsin EDTA (Invitrogen), washed, and then labeled with a six antibody cocktail (antibodies against the following epitopes: CD44, CD24, CD133, CD326, CD166, and P-glycoprotein in PBS without calcium and magnesium supplemented with 2% FBS) or appropriate isotype control antibodies. […] The specific amounts needed for each labeled antibody were determined through titration studies. […]

phospho-ERK1/2 = assay: Immunoblotting of phospho-ERK1/2 relative to total ERK1/2 in HT29
Protocol: To determine if SC-1 reached the same target in the treated colon tumor lines, changes in abundance of phospho-ERK 1/2 (p-ERK) and total ERK1/2 protein were evaluated by immunoblotting at time points similar to those previously studied (Figure 3A). In the HT29 treated tumor line, phospho-ERK 1/2 protein levels (relative to total ERK1/2 protein levels) were decreased in 5 min (67±0.06% of control value), reached a trough at 1 hr (46±0.06% of control), and remained decreased during the remainder of the time course (4 hrs, 68±0.10% of control value). Thus, it is likely SC-1 is reaching its cognate molecular target in the HT29 tumor line.
Standard protein electrophoretic techniques were followed using previously published protocols. For these studies, the colon lines were cultured for 5 days with and without treatments, harvested with trypsin (0.25% trypsin 0.5 mM EDTA, Invitrogen), counted and lysed with a whole cell lysis buffer (10 mM Tris, 1.0 mM EDTA, 50 mM NaCl, 0.5% deoxycholate, 0.5% NP-40, 0.5% SDS, 1.0 mM PMSF, and aprotonin and a cocktail of phosphatase and protease inhibitors). The whole cell lysate was heated to 100°C for 10 min and then fractionated (1000 g, 10 min, 4°C). Protein concentrations were measured with the Pierce BCA Protein Assay. Twenty to 40 µg of protein lysate per lane were loaded onto 10% SDS polyacrylamide gels (Ready-Gels, Biorad) with Laemmli buffer. For immunoblotting, the primary antibodies were diluted in Tween/Tris wash buffer (0.1 mM Tris-HCl pH 7.5, 2.5% Tween-20, 150 mM NaCl) and 5% BSA or nonfat dry milk and incubated overnight at 4°C. Visualization of specific bands was accomplished with an alkaline phosphatase-labeled secondary anti-immunoglobulin antibody and the ECF Chemifluorescent reagent (GE Amersham). Pixel intensity of the imaged bands was measured using STORM (GE Amersham) and Image Quant Software. Normalization for loading was accomplished by reprobing with an anti-actin antibody, quantification of pixel intensity and data normalization.

HT29 = assay: Sphere formation in serum free media and low attachment vessels; settings: serum free media, low attachment vessels, 0.1 µM SC-1, Day 1 and Day 5
Protocol: HT29 tumor line was cultured at 0.5–8 cells/µl in serum free media (RPMI 1640 containing EGF (20 ng/ml), bFGF (10 ng/ml) and B27 supplement) one day prior to addition of SC-1 (0.1 µM). The number of spheres per well was counted on Day 1 (A) and Day 5 (B) following treatment. Statistically significant effects (*p<0.05) for SC-1 treatment were found at all conditions where spheres formed. A representative experiment of 3 is shown here. (PDF) Click here for additional data file.

Cc1cc(Nc2ncc3c(n2)N(C)C(=O)N(c2cc(NC(=O)c4cccc(C(F)(F)F)c4)ccc2C)C3)n(C)n1 [SC-1]
Distribution of cell population across the cell cycle vs control (HCT-116): no difference
Expression of the putative CSC markers (COLO 205): No increased expression
phospho-ERK 1/2 protein levels relative to total ERK1/2 (phospho-ERK1/2; 0.1 µM SC-1, 5 min): 67±0.06 % of control
phospho-ERK 1/2 protein levels relative to total ERK1/2 (phospho-ERK1/2; 0.1 µM SC-1, 30 min): 56±0.06 % of control
phospho-ERK 1/2 protein levels relative to total ERK1/2 (phospho-ERK1/2; 0.1 µM SC-1, 1 hr): 46±0.06 % of control
phospho-ERK 1/2 protein levels relative to total ERK1/2 (phospho-ERK1/2; 0.1 µM SC-1, 4 hrs): 68±0.10 % of control
Number of spheres per well vs control (HT29): Increased Sphere Formation
